Measurements taken from patent publication US20250154172A1, “PRMT5 INHIBITORS AND USES THEREOF” (Gilead Sciences, Inc., priority 2023, published 2025).

Key:
[1] = tested on: LU99; test: Cell viability assay for additional cell lines: LU99; format: cell-based; conditions: for GI50: Homo sapiens, Lu-99, 216 h, 9-day treatment, average of n=2, read-out: MTAP-Deleted GI50
Procedure: (§1) Some Compounds of the Disclosure were tested in Calu-6 (Vendor: ATCC; Cat #HTB-56; Description: lung, adenocarcinoma), LU99 (Vendor: JCRB; Cat #JCRB0080; Description: non-small cell lung cancer), SW780 (Vendor: ATCC; Cat #CRL-2169; Description: bladder urothelial carcinoma), BxPC-3 (Vendor: ATCC; Cat #CRL-1687; Description: pancreatic adenocarcinoma), Panc-1 (Vendor: ATCC; Cat #CRL-1469 Description: pancreatic adenocarcinoma), AsPC-1 (Vendor: ATCC; Cat #CRL-1682; Description: pancreatic adenocarcinoma), Calu-6 (Vendor: ATCC; Cat #HTB-56; Description: non-small cell lung cancer), and U-2 OS (Vendor: ATCC; Cat #HTB-96; Description: osteosarcoma), cellular viability assays according to the general protocol. Seeded cells into 96-well plate and incubated overnight. Seeded an additional 10 wells per cell line in an additional 96-well plate for assessing Time Zero luminescence and incubated overnight. To treatment plates, added compounds into each well using Tecan D300e dispenser (nine three-fold dilutions starting at 10 μM) and incubated for 9 days. Time Zero (no compound treatment, luminescence assessed on day 1) and 9-day treatment (luminescence assessed on day 10) plates were assessed using the same CellTiter-Glo® substrate protocol. Thawed CellTiter-Glo® Buffer and lyophilized CellTiter-Glo® substrate and equilibrated to room temperature prior to use. The DMSO concentration was normalized to 0.137%. Transferred 100 ml CellTiter-Glo® Buffer into amber bottle containing CellTiter-Glo® substrate to reconstitute the lyophilized enzyme/substrate mixture. For Time Zero and 9-day treatment plates, removed all plating media. Added 100 μl fresh media/well. Added 100 μl CellTiter-Glo® Reagent per well. Mixed contents for 10 min on an orbital shaker to lyse cells. Recorded luminescence with Perkin Elmer Envision 2105 machine. Analyzed the data with GraphPad software. Potency fold difference is defined as GI50 (AMG193)/GI50 (Ca-47) for the MTAP^del cell line of interest. The structure of AMG193 is as follows.

[2] = Hepatocyte stability assay; format: in vitro ADME; conditions: Rat hepatocytes; 1 μM substrate
Procedure: BioreclamationIVT (Baltimore, MD) provided the cryopreserved hepatocytes, hepatocyte thawing (HT) medium, and Krebs-Henseleit buffer (KHB) medium. The stock solution concentration was 1 M in DMSO and was then diluted further in acetonitrile/water (1:1 v/v). All other chemicals were purchased from Sigma-Aldrich (St. Louis, MO) or Thermo Fisher Scientific (Waltham, MA).
The quench solution used to stop reactions in the hepatocyte incubations was comprised of 100% (v/v) acetonitrile. Internal Standard/Quench (IS/Q) solution used to stop reactions with the positive control also contained 200 nM Labetalol.
Metabolic Stability in Cryopreserved Hepatocytes: Test compounds, or the positive control metabolic substrate, was incubated in suspensions of cryopreserved hepatocytes at a final concentration of 1 μM. Vials containing cryopreserved hepatocytes were removed from liquid nitrogen and immediately immersed in a 37° C. water bath. The vials were swirled gently until the contents had thawed. […] The viabilities of all cell preparations were >85%, assessed by Trypan blue dye exclusion.
For incubations, aliquots of hepatocyte suspension (250 μL containing a cell concentration of 2×10^6 cells/mL) were added to 250 μL of 2 μM substrate (test compound or positive control) in supplemented KHB in duplicate wells in a 24-well plate. […] Samples were injected and analyzed with methods described below. […]

[3] = tested on: Calu-6; test: Cell viability assay for additional cell lines: Calu-6; format: cell-based; conditions: Homo sapiens, 216 h, 9-day treatment, average of n=2, read-out: MTAP-WT GI50
Procedure: as §1, with “Thawed CellTiter-Glo® Buffer and lyophilized CellTiter-Glo® substrate and equilibrated to room temperature prior to use. The DMSO concentration was normalized to 0.137%. Transferred 100 ml CellTiter-Glo® Buffer into amber bottle containing CellTiter-Glo® substrate to reconstitute the lyophilized enzyme/substrate mixture. For Time Zero and 9-day treatment plates, removed all plating media. Added 100 μl fresh media/well. Added 100 μl CellTiter-Glo® Reagent per well. Mixed contents for 10 min on an orbital shaker to lyse cells.” left out, “Potency fold difference is defined as GI50 (AMG193)/GI50 (Ca-47) for the MTAP^del cell line of interest. The structure of AMG193 is as follows.” left out

Structure (SMILES): Nc1nc2cnc(C(=O)N3CCOC[C@@H]3c3ccc(C(F)(F)F)cc3)cc2c2c1COC2 [AMG193, reference compound]
- GI50 [1]: 45 nM
- Predicted Hepatocyte CL [2]: 41 mL/min/kg
- GI50 [3]: 7000 nM

Structure (SMILES): Nc1nc2cnc(C(=O)N3CCC[C@@H]4Oc5cc(C(F)(F)F)cc(F)c5[C@@H]43)cc2c2c1COC2 [Example Ca-47, (4-amino-1,3-dihydrofuro[3,4-c][1,7]naphthyridin-8-yl)((4aS,9bS)-9-fluoro-7-(trifluoromethyl)-3,4,4a,9b-tetrahydrobenzofuro[3,2-b]pyridin-1(2H)-yl)methanone]
- Potency fold difference ([1]; GI50 (AMG193)/GI50 (Ca-47)): 5
- GI50 [1]: 9 nM
- Predicted Hepatocyte CL [2]: 42.2 mL/min/kg
- GI50 [3]: 1600 nM
